pKi: −log10 of the molar value.
target: T1, human NK3 receptor (Homo sapiens, UniProt P29371); assay: [3H]SR142801 competition binding assay; conditions: hNK3 receptor binding, [3H]SR142801, membranes from HEK293 cells transiently expressing recombinant human NK3 receptor
T1 construct: expressed in transfected cells; host or cells: HEK293 cells (transient expression), membrane preparation
T1 sequence (P29371 1-465): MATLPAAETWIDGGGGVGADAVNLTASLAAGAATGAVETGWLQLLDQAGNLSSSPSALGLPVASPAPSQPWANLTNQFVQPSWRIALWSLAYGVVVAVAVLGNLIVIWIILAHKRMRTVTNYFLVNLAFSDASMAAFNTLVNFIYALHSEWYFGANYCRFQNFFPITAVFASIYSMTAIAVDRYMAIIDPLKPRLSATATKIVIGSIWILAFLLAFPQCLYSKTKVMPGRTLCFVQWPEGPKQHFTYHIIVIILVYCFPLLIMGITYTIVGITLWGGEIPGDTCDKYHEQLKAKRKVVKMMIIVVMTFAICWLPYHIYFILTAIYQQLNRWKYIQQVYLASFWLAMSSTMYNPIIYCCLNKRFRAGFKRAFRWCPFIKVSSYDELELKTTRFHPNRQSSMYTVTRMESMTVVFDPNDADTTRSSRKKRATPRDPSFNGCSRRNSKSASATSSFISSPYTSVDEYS
Description: [^3H]SR142801 Competition Binding Assay
hNK3 receptor binding experiment were performed using [^3H]SR142801 (Catalog No. TRK1035, specific activity: 74.0 Ci/mmol, Amersham, GE Healthcare UK limited, Buckinghamshire, UK) and membrane isolated from HEK293 cells transiently expressing recombinant human NK3 receptor. After thawing, the membrane homogenates were centrifuged at 48,000×g for 10 min at 4° C., the pellets were resuspended in the 50 mM Tris-HCl, 4 mM MnCl2, 1 μM phosphoramidon, 0.1% BSA binding buffer at pH 7.4 to a final assay concentration of 5 μg protein/well. For inhibition experiments, membranes were incubated with [^3H]SR142801 at a concentration equal to KD value of radioligand and 10 concentrations of the inhibitory compound (0.0003-10 μM) (in a total reaction volume of 500 μl) for 75 min at room temperature (RT). At the end of the incubation, membranes were filtered onto unitfilter (96-well white microplate with bonded GF/C filter preincubated 1 h in 0.3% PEI+0.3% BSA, Packard BioScience, Meriden, Conn.) with a Filtermate 196 harvester (Packard BioScience) and washed 4 times with ice-cold 50 mM Tris-HCl, pH 7.4 buffer. Nonspecific binding was measured in the presence of 10 μM SB222200 for both radioligands. The radioactivity on the filter was counted (5 min) on a Packard Top-count microplate scintillation counter with quenching correction after addition of 45 μl of microscint 40 (Canberra Packard S. A., Zürich, Switzerland) and shaking for 1 h. Inhibition curves were fitted according to the Hill equation: y=100/(1+(x/IC50)^nH), where nH=slope factor using Excel-fit 4 software (Microsoft). IC50 values were derived from the inhibition curve and the affinity constant (Ki) values were calculated using the Cheng-Prussoff equation Ki=IC50/(1+[L]/KD) where [L] is the concentration of radioligand and KD is its dissociation constant at the receptor, derived from the saturation isotherm. All experiments were performed in duplicate and the mean±standard error (SEM) of the individual Ki values was calculated.

Compound	pKi
CN(C)CCN1CCN(C(=O)N2C[C@H](c3ccc(Cl)c(Cl)c3)[C@@H](N(C)Cc3ccc(C(F)(F)F)c(F)c3)C2)CC1 (racemic) [Example 75, {(3SR,4RS)-3-(3,4-Dichloro-phenyl)-4-[(3-fluoro-4-trifluoromethyl-benzyl)-methyl-amino]-pyrrolidin-1-yl}-[4-(2-dimethylamino-ethyl)-piperazin-1-yl]-methanone]	8.34
CN(Cc1ccc(C(F)(F)F)c(F)c1)[C@H]1CN(C(=O)N2CCN(S(=O)(=O)N(C)C)CC2)C[C@@H]1c1ccc(Cl)c(Cl)c1 (racemic) [Example 76, 4-{(3SR,4RS)-3-(3,4-Dichloro-phenyl)-4-[(3-fluoro-4-trifluoromethyl-benzyl)-methyl-amino]-pyrrolidine-1-carbonyl}-piperazine-1-sulfonic acid dimethylamide]	8.74
COc1cccc(N2CCN(C(=O)N3C[C@H](c4ccc(Cl)c(Cl)c4)[C@@H](N(C)Cc4ccc(C(F)(F)F)c(F)c4)C3)CC2)n1 (racemic) [Example 77, {(3SR,4RS)-3-(3,4-Dichloro-phenyl)-4-[(3-fluoro-4-trifluoromethyl-benzyl)-methyl-amino]-pyrrolidin-1-yl}-[4-(6-methoxy-pyridin-2-yl)-piperazin-1-yl]-methanone]	7.57
CCN(CC)C(=O)N1CCN(C(=O)N2C[C@H](c3ccc(Cl)c(Cl)c3)[C@@H](N(C)Cc3ccc(C(F)(F)F)c(F)c3)C2)CC1 (racemic) [Example 78, 4-{(3SR,4RS)-3-(3,4-Dichloro-phenyl)-4-[(3-fluoro-4-trifluoromethyl-benzyl)-methyl-amino]-pyrrolidine-1-carbonyl}-piperazine-1-carboxylic acid diethylamide]	8.32
CN(Cc1ccc(C(F)(F)F)c(F)c1)[C@H]1CN(C(=O)N2CCN(CCC#N)CC2)C[C@@H]1c1ccc(Cl)c(Cl)c1 (racemic) [Example 79, 3-(4-{(3SR,4RS)-3-(3,4-Dichloro-phenyl)-4-[(3-fluoro-4-trifluoromethyl-benzyl)-methyl-amino]-pyrrolidine-1-carbonyl}-piperazin-1-yl)-propionitrile]	8.72
CN(Cc1ccc(C(F)(F)F)c(F)c1)[C@H]1CN(C(=O)N2CCC(O)(c3ccncc3)CC2)C[C@@H]1c1ccc(Cl)c(Cl)c1 (racemic) [Example 80, {(3SR,4RS)-3-(3,4-Dichloro-phenyl)-4-[(3-fluoro-4-trifluoromethyl-benzyl)-methyl-amino]-pyrrolidin-1-yl}-(4-hydroxy-3,4,5,6-tetrahydro-2H-[4,4′]bipyridinyl-1-yl)-methanone]	7.68
CN(Cc1ccc(C(F)(F)F)c(F)c1)[C@H]1CN(C(=O)N2CCN(S(C)(=O)=O)CC2)C[C@@H]1c1ccc(Cl)c(F)c1 (racemic) [Example 81, {(3SR,4RS)-3-(4-Chloro-3-fluoro-phenyl)-4-[(3-fluoro-4-trifluoromethyl-benzyl)-methyl-amino]-pyrrolidin-1-yl}-(4-methanesulfonyl-piperazin-1-yl)-methanone]	7.84
CN(Cc1ccc(C(F)(F)F)c(F)c1)[C@H]1CN(C(=O)N2CCCN(S(C)(=O)=O)CC2)C[C@@H]1c1ccc(Cl)c(F)c1 (racemic) [Example 82, {(3SR,4RS)-3-(4-Chloro-3-fluoro-phenyl)-4-[(3-fluoro-4-trifluoromethyl-benzyl)-methyl-amino]-pyrrolidin-1-yl}-(4-methanesulfonyl-[1,4]diazepan-1-yl)-methanone]	7.40
CN(Cc1ccc(C(F)(F)F)cc1)[C@H]1CN(C(=O)N2CCN(S(C)(=O)=O)CC2)C[C@@H]1c1ccc(Cl)c(Cl)c1 (racemic) [Example 83, {(3SR,4RS)-3-(3,4-Dichloro-phenyl)-4-[methyl-(4-trifluoromethyl-benzyl)-amino]-pyrrolidin-1-yl}-(4-methanesulfonyl-piperazin-1-yl)-methanone]	8.22
CN(Cc1ccc(C(F)(F)F)cc1)[C@H]1CN(C(=O)CCCCN2CCOCC2)C[C@@H]1c1ccc(Cl)c(Cl)c1 (racemic) [Example 84, 1-{(3SR,4RS)-3-(3,4-Dichloro-phenyl)-4-[methyl-(4-trifluoromethyl-benzyl)-amino]-pyrrolidin-1-yl}-5-morpholin-4-yl-pentan-1-one]	7.81
CNCCCCC(=O)N1C[C@H](c2ccc(Cl)c(Cl)c2)[C@@H](N(C)Cc2ccc(C(F)(F)F)c(F)c2)C1 (racemic) [Example 86, 1-{(3SR,4RS)-3-(3,4-Dichloro-phenyl)-4-[(3-fluoro-4-trifluoromethyl-benzyl)-methyl-amino]pyrrolidin-1-yl}-5-methylamino-pentan-1-one]	7.01
CN(C)CCCCC(=O)N1C[C@H](c2ccc(Cl)c(Cl)c2)[C@@H](N(C)Cc2ccc(C(F)(F)F)c(F)c2)C1 (racemic) [Example 87, 1-{(3SR,4RS)-3-(3,4-Dichloro-phenyl)-4-[(3-fluoro-4-trifluoromethyl-benzyl)-methyl-amino]-pyrrolidin-1-yl}-5-dimethylamino-pentan-1-one]	7.29
CN(Cc1ccc(C(F)(F)F)c(F)c1)[C@H]1CN(C(=O)CCCCN2CCNCC2)C[C@@H]1c1ccc(Cl)c(Cl)c1 (racemic) [Example 88, 1-{(3SR,4RS)-3-(3,4-Dichloro-phenyl)-4-[(3-fluoro-4-trifluoromethyl-benzyl)-methyl-amino]-pyrrolidin-1-yl}-5-piperazin-1-yl-pentan-1-one]	7.61
CN1CCN(CCCCC(=O)N2C[C@H](c3ccc(Cl)c(Cl)c3)[C@@H](N(C)Cc3ccc(C(F)(F)F)c(F)c3)C2)CC1 (racemic) [Example 89, 1-{(3SR,4RS)-3-(3,4-Dichloro-phenyl)-4-[(3-fluoro-4-trifluoromethyl-benzyl)-methyl-amino]-pyrrolidin-1-yl}-5-(4-methyl-piperazin-1-yl)-pentan-1-one]	7.57
CN(Cc1ccc(C(F)(F)F)c(F)c1)[C@H]1CN(C(=O)CCCCN2CCN(S(=O)(=O)N(C)C)CC2)C[C@@H]1c1ccc(Cl)c(Cl)c1 (racemic) [Example 90, 4-(5-{(3SR,4RS)-3-(3,4-Dichloro-phenyl)-4-[(3-fluoro-4-trifluoromethyl-benzyl)-methyl-amino]-pyrrolidin-1-yl}-5-oxo-pentyl)-piperazine-1-sulfonic acid dimethylamide]	8.07
CN(Cc1ccc(C(F)(F)F)c(F)c1)[C@H]1CN(C(=O)CCCCn2ccnc2)C[C@@H]1c1ccc(Cl)c(Cl)c1 (racemic) [Example 91, 1-{(3SR,4RS)-3-(3,4-Dichloro-phenyl)-4-[(3-fluoro-4-trifluoromethyl-benzyl)-methyl-amino]-pyrrolidin-1-yl}-5-imidazol-1-yl-pentan-1-one]	7.24
CN(Cc1ccc(C(F)(F)F)c(F)c1)[C@H]1CN(C(=O)CCCCN2CCCC2)C[C@@H]1c1ccc(Cl)c(Cl)c1 (racemic) [Example 92, 1-{(3SR,4RS)-3-(3,4-Dichloro-phenyl)-4-[(3-fluoro-4-trifluoromethyl-benzyl)-methyl-amino]-pyrrolidin-1-yl}-5-pyrrolidin-1-yl-pentan-1-one]	7.33
CN(Cc1ccc(C(F)(F)F)c(F)c1)[C@H]1CN(C(=O)CCCCC(=O)c2ccccn2)C[C@@H]1c1ccc(Cl)c(Cl)c1 (racemic) [Example 95, 1-{(3SR,4RS)-3-(3,4-Dichloro-phenyl)-4-[(3-fluoro-4-trifluoromethyl-benzyl)-methyl-amino]-pyrrolidin-1-yl}-6-pyridin-2-yl-hexane-1,6-dione]	7.61
CN(Cc1ccc(C(F)(F)F)c(F)c1)[C@H]1CN(C(=O)CCCCC(N)=O)C[C@@H]1c1ccc(Cl)c(Cl)c1 (racemic) [Example 98, 6-{(3SR,4RS)-3-(3,4-Dichloro-phenyl)-4-[(3-fluoro-4-trifluoromethyl-benzyl)-methyl-amino]-pyrrolidin-1-yl}-6-oxo-hexanoic acid amide]	7.28
CN(Cc1ccc(C(F)(F)F)c(F)c1)[C@H]1CN(C(=O)CCCCC#N)C[C@@H]1c1ccc(Cl)c(Cl)c1 (racemic) [Example 102, 6-{(3SR,4RS)-3-(3,4-Dichloro-phenyl)-4-[(3-fluoro-4-trifluoromethyl-benzyl)-methyl-amino]-pyrrolidin-1-yl}-6-oxo-hexanenitrile]	7.15
